Results from patent US20100298384A1, “NOVEL OXAZOLIDINONE COMPOUNDS AS ANTIINFECTIVE AGENTS” (priority 2006, published 2010).

Columns and labels:
[1] = test system: S. aureus ATCC 29213 and other strains; test: Systemic infection model in mice, ED50 by Probit analysis; assay type: in vivo; settings: Staphylococcus aureus, ATCC29213, Swiss albino mice, survival observed 5 to 7 days, route and regimen not stated per value
Protocol: Efficacies of the molecules were determined by systemic infection model. In this model, 6-7 weeks old Swiss albino mice (3 Males and 3 Females/group) weighing 21-25 grams were used. S. aureus ATCC 29213 and other strains were cultured on Columbia Blood agar (DIFCO), overnight, at 37° C. for 18 to 24 hours. Inoculum was prepared in 0.9% saline and optical density (OD) was adjusted at 560 nm to get 100×LD50 dose. Inoculum was diluted 1:1 with 10% Hog Gastric Mucin and 0.5 ml of inoculum was injected intraperitonially to each animal. Test compounds were solubilised in suitable formulation and administered by per-oral, subcutaneous or intra venous route by q.d., b.i.d. or t.i.d. protocol. […] ED50 Value (mg/kg) was calculated by Probit analysis.

Row | melting point | Structure (SMILES) | ED50 [1]
1 | 170 to 171 °C | CC(=O)NC[C@H]1CN(c2ccc(-n3cc(Cn4cncn4)nn3)c(F)c2)C(=O)O1 [Example 30] | 8.5 mg/kg
2 | 160 to 162 °C | CC(=O)NC[C@H]1CN(c2ccc(-c3nc(Cn4cncn4)co3)c(F)c2)C(=O)O1 [Example 4, N-{3-[3-fluoro-4-(4-[1,2,4]-triazol-1-ylmethyl-oxazol-2-yl)-phenyl]-2-oxo-oxazolidin-5(S)-ylmethyl}-acetamide] | 5.38 mg/kg

The next lines start with the molecule.

Row | Structure (SMILES) | melting point | ED50 [1]
3 | COC(=O)NC[C@H]1CN(c2ccc(-n3cc(Cn4cccn4)nn3)c(F)c2)C(=O)O1 [Example 46, Methyl N-{3-[3-fluoro-4-(4-pyrazol-1-yl-methyl-(1,2,3)triazol-1-yl)-phenyl]-2-oxo-oxazolidin-5-ylmethyl}carbamate] | – | 2.53 mg/kg
4 | CC(=O)NC[C@H]1CN(c2ccc(-c3nc(Cn4cccn4)co3)c(F)c2)C(=O)O1 [Example 2, N-{3-[3-fluoro-4-(4-pyrazol-1-ylmethyl-oxazol-2-yl)-phenyl]-2-oxo-oxazolidin-5(S)-ylmethyl}-acetamide] | 204 to 206 °C | 7.1 mg/kg
5 | COC(=O)NC[C@H]1CN(c2ccc(-n3cnc(Cn4cccn4)c3)c(F)c2)C(=O)O1 [Example 44, Methyl {3-[3-fluoro-4-(4-pyrazol-1-ylmethyl-imidazol-1-yl)-phenyl]-2-oxo-oxazolidin-5-ylmethyl}-carbamate] | 130 °C | 5.02 mg/kg
